Source: patent US10479764B2, “2-methylene-(22E)-25-hexanoyl-24-oxo-26,27-cyclo-22-dehydro-19-nor-vitamin D analogs” (WISCONSIN ALUMNI RESEARCH FOUNDATION, priority 2011, dated 2019)
Like-named read-outs stand apart in the source and are kept apart here.

Experiments:
[1] = tested on: 24-hydroxylase (24Ohase) gene promoter in ROS 17/2.8 (bone) cells; test: In vitro transcription assay (24-hydroxylase promoter luciferase reporter); assay type: cell-based; details: ROS 17/2.8 cells, FIG. 3, read-out: EC50, transcriptional activity in bone cells (24-hydroxylase gene)
Experimental: In Vitro Transcription Assay
Transcription activity was measured in ROS 17/2.8 (bone) cells that were stably transfected with a 24-hydroxylase (24Ohase) gene promoter upstream of a luciferase reporter gene (Arbour et al., 1998). Cells were given a range of doses. Sixteen hours after dosing the cells were harvested and luciferase activities were measured using a luminometer.
RLU=relative luciferase units.

[2] = Bone calcium mobilization (serum calcium) in vitamin D-deficient rats; assay type: in vivo, rat
Experimental: (§1) Intestinal Calcium Transport and Bone Calcium Mobilization
(§2) Male, weanling Sprague-Dawley rats were placed on Diet 11 (0.47% Ca) diet+AEK oil for one week followed by Diet 11 (0.02% Ca)+AEK oil for 3 weeks. The rats were then switched to a diet containing 0.47% Ca for one week followed by two weeks on a diet containing 0.02% Ca. Dose administration began during the last week on 0.02% calcium diet. Four consecutive ip doses were given approximately 24 hours apart. Twenty-four hours after the last dose, blood was collected from the severed neck and the concentration of serum calcium determined as a measure of bone calcium mobilization. The first 10 cm of the intestine was also collected for intestinal calcium transport analysis using the everted gut sac method.

HL-60 cells = test: HL-60 differentiation (nitro blue tetrazolium reduction); assay type: cell-based, human; details: differentiation of HL-60 cells into monocytes, FIG. 2, read-out: EC50, HL-60 cell differentiation
Experimental: The study drugs were dissolved in ethanol and the concentrations determined using UV spectrophotometry. Serial dilutions were prepared so that a range of drug concentrations could be tested without changing the final concentration of ethanol (≤0.2%) present in the cell cultures.
Human promyelocytic leukemia (HL60) cells were grown in RPMI-1640 medium containing 10% fetal bovine serum. The cells were incubated at 37° C. in the presence of 5% CO2.
HL60 cells were plated at 1.2×10^5 cells/ml. Eighteen hours after plating, cells in duplicate were treated with drug. Four days later, the cells were harvested and a nitro blue tetrazolium reduction assay was performed (Collins et al., 1979; J. Exp. Med. 149:969-974). The percentage of differentiated cells was determined by counting a total of 200 cells and recording the number that contained intracellular black-blue formazan deposits. Verification of differentiation to monocytic cells was determined by measuring phagocytic activity (data not shown).

[3] = molecular target: T1, full-length recombinant rat vitamin D receptor (Rattus norvegicus, UniProt P13053); test: Vitamin D receptor binding, competition with [3H]-1,25(OH)2D3; details: full-length recombinant rat VDR; FIG. 1
T1 construct: Full-length recombinant rat receptor was expressed in E. coli; histidine tag (C); made in house; host or cells: E. coli BL21 (DE3) Codon Plus RIL
T1 sequence (P13053 1-423): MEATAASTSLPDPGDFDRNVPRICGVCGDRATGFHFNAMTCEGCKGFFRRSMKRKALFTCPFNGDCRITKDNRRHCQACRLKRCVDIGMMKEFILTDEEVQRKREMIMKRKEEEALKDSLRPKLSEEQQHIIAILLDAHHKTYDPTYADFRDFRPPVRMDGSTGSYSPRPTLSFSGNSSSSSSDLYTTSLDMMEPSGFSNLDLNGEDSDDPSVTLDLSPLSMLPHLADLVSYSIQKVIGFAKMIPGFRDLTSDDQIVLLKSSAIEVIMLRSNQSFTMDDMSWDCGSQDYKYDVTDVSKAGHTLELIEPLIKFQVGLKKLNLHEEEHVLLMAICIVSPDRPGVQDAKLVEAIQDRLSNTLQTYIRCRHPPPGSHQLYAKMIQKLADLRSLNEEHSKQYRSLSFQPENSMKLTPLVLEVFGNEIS
Excerpt: Vitamin D Receptor Binding
Full-length recombinant rat receptor was expressed in E. coli BL21 (DE3) Codon Plus RIL cells and purified to homogeneity using two different column chromatography systems. The first system was a nickel affinity resin that utilizes the C-terminal histidine tag on this protein. The protein that was eluted from this resin was further purified using ion exchange chromatography (S-Sepharose Fast Flow). Aliquots of the purified protein were quick frozen in liquid nitrogen and stored at −80° C. until use. For use in binding assays, the protein was diluted in TEDK50 (50 mM Tris, 1.5 mM EDTA, pH7.4, 5 mM DTT, 150 mM KCl) with 0.1% Chaps detergent. The receptor protein and ligand concentration were optimized such that no more than 20% of the added radiolabeled ligand was bound to the receptor.
The following day, 100 mcl of hydroxylapatite slurry (50%) was added to each tube and mixed at 10-minute intervals for 30 minutes. The hydroxylapaptite was collected by centrifugation and then washed three times with Tris-EDTA buffer (50 mM Tris, 1.5 mM EDTA, pH 7.4) containing 0.5% Titron X-100. After the final wash, the pellets were transferred to scintillation vials containing 4 ml of Biosafe II scintillation cocktail, mixed and placed in a scintillation counter. Total binding was determined from the tubes containing only radiolabeled ligand.

[4] = Intestinal calcium transport (everted gut sac) in vitamin D-deficient rats; assay type: in vivo, rat
Experimental: as §1, §2

Structure (SMILES) | EC50 [1] [pM] | serum calcium levels (bone calcium mobilization) ([2]; vitamin D-deficient rats, low calcium diet (0.02%), all dosages, FIGS. 4A and 4B) | EC50 (HL-60 cells) [pM] | bone calcium mobilization at 780 pmol/day ([2]; 780 pmol/day, FIG. 4B, second group of animals) | dose giving about the same mobilization of bone calcium as 1,25(OH)2D3 at 260 pmol/day ([2]; 4 consecutive days, ip, FIG. 4A, first group of animals) [pmol/day] | dose giving about the same mobilization of bone calcium as native hormone at 780 pmol/day ([2]; 4 consecutive days, ip, FIG. 4B, second group of animals) [pmol/day] | bone calcium mobilization activity, times less than 1,25(OH)2D3 ([2]; FIGS. 4A and 4B) | Ki [3] [pM] | EC50 (HL-60 cells; Homo sapiens) [pM] | intestinal calcium transport activity at 87 pmol/day ([4]; 87 pmol/day for 4 consecutive days, FIG. 5A) | intestinal calcium transport activity at 260 pmol/day and then 780 pmol/day ([4]; 260 pmol/day and 780 pmol/day, 4 consecutive days, FIG. 5A) | intestinal calcium transport activity compared with 1,25(OH)2D3 ([4]; in vivo, dose dependent, FIGS. 5A and 5B)
C=C1/C(=C\C=C2/CCC[C@]3(C)[C@@H]([C@H](C)CCCC(C)(C)O)CC[C@@H]23)C[C@@H](O)C[C@@H]1O [1α,25-dihydroxyvitamin D3, reference compound] | 300 | increased serum calcium levels at all dosages | 2000 | – | – | – | – | – | – | – | – | –
C=C1[C@H](O)CC(=C/C=C2\CCC[C@]3(C)[C@@H]([C@H](C)/C=C/C(=O)C4(C(=O)CCCCC)CC4)CC[C@@H]23)C[C@H]1O [UW-05, 2-methylene-(22E)-25-hexanoyl-24-oxo-26,27-cyclo-22-dehydro-19-nor-1α-hydroxyvitamin D3] | 300 | – | – | no substantial effect was seen | 780 | 7020 | about 10 times | 300 | 4000 | did not result in substantial activity | a significant increase in effect was seen | approximately equal to 1,25-dihydroxyvitamin D3
